# Reference: US11207320B2, “Compositions and methods for cancer expressing PDE3A or SLFN12” (The Broad Institute, Inc., priority 2015, dated 2021)
# System: 766 cancer cell lines
# Assay: Large-scale cell-line viability measurements (766 cancer cell lines, 72 h, AUC)
# Assay type: cell-based, human
# Protocol: Cell lines were treated for 72 hours with concentrations ranging from 66.4 μM-2 nM in 2-fold step dilutions.
# To characterize cellular sensitivity to DNMDP further, 766 genomically characterized cancer cell lines were screened for DMNDP sensitivity at concentrations ranging from 66.4 μM to 2 nM in 2-fold dilution steps for 72 hours. From these cell lines, 22 cell lines were categorized as sensitive with a robust Z-score lower than −4, which represented multiple lineages including multiple melanoma cell lines, amongst others (Table 1).
# The sensitivity of […] cancer cell lines (CCLs) was measured drawn from 23 different lineages to DNMDP. Each cell line was plated in its preferred media in white opaque 1536-plates at a density of 500 cells/well. After incubating overnight, DNMDP was added by acoustic transfer at 16 concentrations ranging from 66.4 μM-2 nM in 2-fold steps in duplicate (Labcyte Echo 555, Labcyte Inc., Sunnyvale, Calif.). After 72 hours treatment, cellular ATP levels were measured as a surrogate for viability (CELLTITERGLO®, Promega Corporation, Madison, Wis.) according to manufacturer's protocols using a ViewLux Microplate Imager (PerkinElmer, Waltham, Mass.) and normalized to background (media-only) and vehicle (DMSO)-treated control wells.
# Concentration response curves were fit using nonlinear fits to 2- or 3-parameter sigmoid functions through all 16 concentrations with the low-concentration asymptote set to the DMSO-normalized value, and an optimal 8-point dose curve spanning the range of compound-sensitivity was identified. The area under the 8-point dose curve (AUC) was computed by numeric integration as a metric for sensitivity for further analysis. Similar sensitivity measurements have been obtained for a collection of 480 other compounds, enabling analyses that identify cell lines responding uniquely to DNMDP (see Broad Institute Cancer Therapeutics Response Portal, a dataset to identify comprehensively relationships between genetic and lineage features of human cancer cell lines and small-molecule sensitivities for complete list of compounds).
# [1] = ALLSIL (HAEMATOPOIETIC AND LYMPHOID TISSUE), 72 hours
# [2] = BICR6 (UPPER AERODIGESTIVE TRACT), 72 hours
# [3] = DKMG (CENTRAL NERVOUS SYSTEM), 72 hours
# [4] = DND41 (HAEMATOPOIETIC AND LYMPHOID TISSUE), 72 hours
# [5] = EJM (HAEMATOPOIETIC AND LYMPHOID TISSUE), 72 hours
# [6] = GB1 (CENTRAL NERVOUS SYSTEM), 72 hours
# [7] = GOS3 (CENTRAL NERVOUS SYSTEM), 72 hours
# [8] = GRANTA519 (HAEMATOPOIETIC AND LYMPHOID TISSUE), 72 hours
# [9] = HEL9217 (HAEMATOPOIETIC AND LYMPHOID TISSUE), 72 hours
# [10] = HUT78 (HAEMATOPOIETIC AND LYMPHOID TISSUE), 72 hours
# [11] = KCL22 (HAEMATOPOIETIC AND LYMPHOID TISSUE), 72 hours
# [12] = KMM1 (HAEMATOPOIETIC AND LYMPHOID TISSUE), 72 hours
# [13] = KMS11 (HAEMATOPOIETIC AND LYMPHOID TISSUE), 72 hours
# [14] = KMS12BM (HAEMATOPOIETIC AND LYMPHOID TISSUE), 72 hours
# [15] = KMS20 (HAEMATOPOIETIC AND LYMPHOID TISSUE), 72 hours
# [16] = KMS28BM (HAEMATOPOIETIC AND LYMPHOID TISSUE), 72 hours
# [17] = KMS34 (HAEMATOPOIETIC AND LYMPHOID TISSUE), 72 hours
# [18] = KO52 (HAEMATOPOIETIC AND LYMPHOID TISSUE), 72 hours
# [19] = L540 (HAEMATOPOIETIC AND LYMPHOID TISSUE), 72 hours
# [20] = L1236 (HAEMATOPOIETIC AND LYMPHOID TISSUE), 72 hours
# [21] = LAMA84 (HAEMATOPOIETIC AND LYMPHOID TISSUE), 72 hours
# [22] = LNCAPCLONEFGC (PROSTATE), 72 hours
# [23] = LP1 (HAEMATOPOIETIC AND LYMPHOID TISSUE), 72 hours
structure (smiles),measurement,setting,value
"CCN(CC)c1ccc(C2=NNC(=O)CC2C)cc1[N+](=O)[O-] (centres unmarked) [DNMDP, 6-(4-(diethylamino)-3-nitrophenyl)-5-methyl-4,5-dihydropyridazin-3(2H)-one]",number of cell lines categorized as sensitive (robust Z-score lower than −4),"766 cell lines, 66.4 μM to 2 nM, 72 hours",22 cell lines
same,share of cell lines with nanomolar efficacy,766 genomically-characterized cancer cell lines,about 3%
same,DNMDP AUC,"A549 (LUNG), 72 hours",5.9509
same,Robust Z-score,"A549 (LUNG), 72 hours",−0.7177
same,DNMDP AUC,[1],5.8724
same,Robust Z-score,[1],−0.8001
same,DNMDP AUC,[2],5.8837
same,Robust Z-score,[2],−0.7882
same,DNMDP AUC,"BT549 (BREAST), 72 hours",5.9226
same,Robust Z-score,"BT549 (BREAST), 72 hours",−0.7474
same,DNMDP AUC,"C32 (SKIN), 72 hours",6.1786
same,Robust Z-score,"C32 (SKIN), 72 hours",−0.4787
same,DNMDP AUC,"CAL54 (KIDNEY), 72 hours",6.1949
same,Robust Z-score,"CAL54 (KIDNEY), 72 hours",−0.4616
same,DNMDP AUC,"COLO668 (LUNG), 72 hours",5.9969
same,Robust Z-score,"COLO668 (LUNG), 72 hours",−0.6694
same,DNMDP AUC,"COLO679 (SKIN), 72 hours",5.9634
same,Robust Z-score,"COLO679 (SKIN), 72 hours",−0.7046
same,DNMDP AUC,"COLO800 (SKIN), 72 hours",6.1272
same,Robust Z-score,"COLO800 (SKIN), 72 hours",−0.5326
same,DNMDP AUC,"CORL51 (LUNG), 72 hours",0.5944
same,Robust Z-score,"CORL51 (LUNG), 72 hours",−6.34
same,DNMDP AUC,"COV362 (OVARY), 72 hours",5.6913
same,Robust Z-score,"COV362 (OVARY), 72 hours",−0.9902
same,DNMDP AUC,[3],1.7217
same,Robust Z-score,[3],−5.157
same,DNMDP AUC,"DMS53 (LUNG), 72 hours",6.2061
same,Robust Z-score,"DMS53 (LUNG), 72 hours",−0.4498
same,DNMDP AUC,[4],6.1979
same,Robust Z-score,[4],−0.4584
same,DNMDP AUC,"DU145 (PROSTATE), 72 hours",5.7825
same,Robust Z-score,"DU145 (PROSTATE), 72 hours",−0.8945
same,DNMDP AUC,"DV90 (LUNG), 72 hours",6.1676
same,Robust Z-score,"DV90 (LUNG), 72 hours",−0.4902
same,DNMDP AUC,"ECGI10 (OESOPHAGUS), 72 hours",6.2151
same,Robust Z-score,"ECGI10 (OESOPHAGUS), 72 hours",−0.4404
same,DNMDP AUC,[5],6.1782
same,Robust Z-score,[5],−0.4791
same,DNMDP AUC,"EPLC272H (LUNG), 72 hours",6.0469
same,Robust Z-score,"EPLC272H (LUNG), 72 hours",−0.6169
same,DNMDP AUC,"G402 (SOFT TISSUE), 72 hours",6.0606
same,Robust Z-score,"G402 (SOFT TISSUE), 72 hours",−0.6026
same,DNMDP AUC,[6],1.8269
same,Robust Z-score,[6],−5.046
same,DNMDP AUC,[7],6.2076
same,Robust Z-score,[7],−0.4483
same,DNMDP AUC,[8],5.8937
same,Robust Z-score,[8],−0.7777
same,DNMDP AUC,"GSU (STOMACH), 72 hours",6.1172
same,Robust Z-score,"GSU (STOMACH), 72 hours",−0.5431
same,DNMDP AUC,"HCC1395 (BREAST), 72 hours",5.9716
same,Robust Z-score,"HCC1395 (BREAST), 72 hours",−0.696
same,DNMDP AUC,"HCC1419 (BREAST), 72 hours",5.7835
same,Robust Z-score,"HCC1419 (BREAST), 72 hours",−0.8934
same,DNMDP AUC,"HCC1428 (BREAST), 72 hours",5.9402
same,Robust Z-score,"HCC1428 (BREAST), 72 hours",−0.7289
same,DNMDP AUC,"HCC1500 (BREAST), 72 hours",5.9451
same,Robust Z-score,"HCC1500 (BREAST), 72 hours",−0.7238
same,DNMDP AUC,[9],0.75
same,Robust Z-score,[9],−6.177
same,DNMDP AUC,"HS888T (BONE), 72 hours",5.8353
same,Robust Z-score,"HS888T (BONE), 72 hours",−0.839
same,DNMDP AUC,[10],1.5307
same,Robust Z-score,[10],−5.357
same,DNMDP AUC,"IALM (LUNG), 72 hours",5.775
same,Robust Z-score,"IALM (LUNG), 72 hours",−0.9023
same,DNMDP AUC,"JHH4 (LIVER), 72 hours",5.71
same,Robust Z-score,"JHH4 (LIVER), 72 hours",−0.9706
same,DNMDP AUC,[11],5.9598
same,Robust Z-score,[11],−0.7084
same,DNMDP AUC,[12],6.1723
same,Robust Z-score,[12],−0.4853
same,DNMDP AUC,[13],6.2008
same,Robust Z-score,[13],−0.4554
same,DNMDP AUC,[14],6.0135
same,Robust Z-score,[14],−0.652
same,DNMDP AUC,[15],6.0542
same,Robust Z-score,[15],−0.6093
same,DNMDP AUC,[16],5.9369
same,Robust Z-score,[16],−0.7324
same,DNMDP AUC,[17],5.8799
same,Robust Z-score,[17],−0.7922
same,DNMDP AUC,[18],6.2174
same,Robust Z-score,[18],−0.438
same,DNMDP AUC,"KYSE410 (OESOPHAGUS), 72 hours",6.0741
same,Robust Z-score,"KYSE410 (OESOPHAGUS), 72 hours",−0.5884
same,DNMDP AUC,[19],6.0807
same,Robust Z-score,[19],−0.5815
same,DNMDP AUC,[20],6.0853
same,Robust Z-score,[20],−0.5766
same,DNMDP AUC,[21],5.8201
same,Robust Z-score,[21],−0.855
same,DNMDP AUC,"LMSU (STOMACH), 72 hours",6.0528
same,Robust Z-score,"LMSU (STOMACH), 72 hours",−0.6107
same,DNMDP AUC,[22],5.7557
same,Robust Z-score,[22],−0.9226
same,DNMDP AUC,"LOUNH91 (LUNG), 72 hours",5.9793
same,Robust Z-score,"LOUNH91 (LUNG), 72 hours",−0.6879
same,DNMDP AUC,[23],6.1029
same,Robust Z-score,[23],−0.5582
same,DNMDP AUC,"LU99 (LUNG), 72 hours",5.8016
